According to patent US12441768B2, “Compositions and methods for treating endometriosis” (EndoMet Biosciences, Inc., priority 2018, dated 2025):
Where a SMILES comes first, the peptide text is derived from it.

Experiments:
β-catenin = molecular target: T1, β-catenin (Homo sapiens, UniProt P35222); assay: KD50 measurement using competitive fluorescence polarization (FP) with labelled TCF4; type: binding; conditions: fluorescence polarization, β-catenin; for Kd: read-out: β-Cat FP KD
T1 sequence (P35222 1-781): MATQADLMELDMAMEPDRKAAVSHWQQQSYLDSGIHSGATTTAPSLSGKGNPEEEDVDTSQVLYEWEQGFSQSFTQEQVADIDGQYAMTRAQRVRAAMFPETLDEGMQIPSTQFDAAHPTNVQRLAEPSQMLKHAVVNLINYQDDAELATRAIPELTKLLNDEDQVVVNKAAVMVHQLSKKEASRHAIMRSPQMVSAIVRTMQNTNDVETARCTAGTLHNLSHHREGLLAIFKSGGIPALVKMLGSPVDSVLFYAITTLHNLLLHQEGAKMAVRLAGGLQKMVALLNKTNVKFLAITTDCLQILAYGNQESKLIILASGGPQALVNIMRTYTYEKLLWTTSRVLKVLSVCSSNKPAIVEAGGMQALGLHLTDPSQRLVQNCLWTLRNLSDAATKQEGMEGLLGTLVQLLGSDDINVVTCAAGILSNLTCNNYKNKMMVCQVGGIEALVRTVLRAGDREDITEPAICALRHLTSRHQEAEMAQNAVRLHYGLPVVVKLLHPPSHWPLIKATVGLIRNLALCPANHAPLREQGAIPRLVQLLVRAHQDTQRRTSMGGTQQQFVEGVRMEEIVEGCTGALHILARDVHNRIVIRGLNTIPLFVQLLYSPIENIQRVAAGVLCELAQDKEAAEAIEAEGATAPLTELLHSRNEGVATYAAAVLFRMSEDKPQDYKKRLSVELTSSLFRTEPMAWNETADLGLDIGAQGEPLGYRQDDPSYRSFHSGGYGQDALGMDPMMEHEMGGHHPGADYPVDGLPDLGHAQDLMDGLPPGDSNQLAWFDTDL
Procedure, shortened: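 Labelled TCF4 (5 nM) mixed with 100 nM β-catenin at room temperature; inhibitor added as serial dilutions from 10 nM to 30 uM. Polarization read at excitation 470 nm/emission 520 nm; binding displacement lowers polarization. Three independent runs.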

[1] = molecular target: Wnt-responsive promoter (TCF/LEF); assay: Wnt-dependent luciferase reporter assay; type: cell-based, murine
Description: The luciferase reporter assay is commonly used as a tool to study gene expression at the transcriptional level. Peptides from libraries described herein were characterized for ability to suppress transcription in cells with luciferase expression controlled by a Wnt-responsive promoter. Peptides were added to cells transfected with luciferase gene downstream of a Wnt-responsive promoter. Cells were stimulated with Wnt3a protein and incubated with peptides from libraries described herein. Luminescence was recorded to determine the peptides with the highest β-catenin-inhibiting activity. EC50 values were calculated based on the inhibition of luminescence and expressed as concentration (uM) in Table 5.
Peptides were assessed for their ability to inhibit Wnt signaling. Murine 3T3 fibroblasts that express luciferase under a Wnt-responsive promoter (TCF/LEF) (Enzo Life Sciences, Farmingdale, NY) were stimulated with Wnt3a in the presence of increasing concentrations of peptide inhibitor (Hit 1: SEQ ID NO:217, Hit 2: SEQ ID NO:224, Hit 3: SEQ ID NO:228, Hit 4: SEQ ID NO:227, Hit 5: SEQ ID NO:220, Hit 6: SEQ ID NO:168. Hit 7: SEQ ID NO:226) or with vehicle control (FIG. 2A).

β-Cat FP Hill slope (β-catenin)	Kd (β-catenin) [µM]	EC50 [1] [µM]	SMILES
0.7	0.4 to 1	> 30	CC[C@H](C)[C@@H]1NC(=O)[C@@H](NC(=O)[C@H](CCC(N)=O)NC(=O)[C@H](C)N(C)C(=O)[C@@H](N)Cc2c[nH]c3ccccc23)CCCCNC(=O)CC[C@@H](C(=O)N[C@@H](Cc2c[nH]cn2)C(=O)N[C@H](C(=O)N[C@@H](CCC(N)=O)C(=O)N[C@@H](CCCNC(=N)N)C(=O)N[C@H](C(=O)N[C@@H](Cc2c[nH]c3ccccc23)C(=O)NCC(N)=O)C(C)C)C(C)C)NC(=O)[C@H](CC(=O)O)NC(=O)[C@H](CC(C)C)NC1=O [compound 401] (HELM PEPTIDE1{W.[meA].Q.K.I.L.D.E.H.V.Q.R.V.W.G.[am]}$PEPTIDE1,PEPTIDE1,4:R3-8:R3$$$V2.0)
0.7	< 0.4	> 30	CC[C@H](C)[C@@H]1NC(=O)[C@@H](NC(=O)[C@H](CCC(N)=O)NC(=O)[C@H](C)N(C)C(=O)[C@H](Cc2c[nH]c3ccccc23)NC(C)=O)CCCCNC(=O)CC[C@@H](C(=O)N[C@@H](Cc2c[nH]cn2)C(=O)N[C@H](C(=O)N[C@@H](CCC(N)=O)C(=O)N[C@@H](CCCNC(=N)N)C(=O)N[C@H](C(=O)N[C@@H](Cc2c[nH]c3ccccc23)C(=O)NCC(N)=O)C(C)C)C(C)C)NC(=O)[C@H](CC(=O)O)NC(=O)[C@H](CC(C)C)NC1=O [compound 402] (HELM PEPTIDE1{[ac].W.[meA].Q.K.I.L.D.E.H.V.Q.R.V.W.G.[am]}$PEPTIDE1,PEPTIDE1,5:R3-9:R3$$$V2.0)
0.76	< 0.4	> 30	CC[C@H](C)[C@@H]1NC(=O)[C@@H](NC(=O)[C@H](CCC(N)=O)NC(=O)[C@H](C)N(C)C(=O)[C@@H](N)Cc2c[nH]c3ccccc23)CCCCNC(=O)CC[C@@H](C(=O)N[C@@H](Cc2c[nH]cn2)C(=O)N[C@H](C(=O)N[C@@H](CCC(N)=O)C(=O)N[C@@H](CCCNC(=N)N)C(=O)N[C@H](C(=O)N[C@@H](Cc2c[nH]c3ccccc23)C(=O)NCC(N)=O)C(C)C)C2CCCCC2)NC(=O)[C@H](CC(=O)O)NC(=O)[C@H](CC(C)C)NC1=O [compound 403] (HELM PEPTIDE1{W.[meA].Q.K.I.L.D.E.H.[O=C([C@@H](N[*:1])C1CCCCC1)[*:2]].Q.R.V.W.G.[am]}$PEPTIDE1,PEPTIDE1,4:R3-8:R3$$$V2.0)
0.79	< 0.4	> 30	CC[C@H](C)[C@@H]1NC(=O)[C@@H](NC(=O)[C@H](CCC(N)=O)NC(=O)[C@H](C)N(C)C(=O)[C@H](Cc2c[nH]c3ccccc23)NC(C)=O)CCCCNC(=O)CC[C@@H](C(=O)N[C@@H](Cc2c[nH]cn2)C(=O)N[C@H](C(=O)N[C@@H](CCC(N)=O)C(=O)N[C@@H](CCCNC(=N)N)C(=O)N[C@H](C(=O)N[C@@H](Cc2c[nH]c3ccccc23)C(=O)NCC(N)=O)C(C)C)C2CCCCC2)NC(=O)[C@H](CC(=O)O)NC(=O)[C@H](CC(C)C)NC1=O [compound 404] (HELM PEPTIDE1{[ac].W.[meA].Q.K.I.L.D.E.H.[O=C([C@@H](N[*:1])C1CCCCC1)[*:2]].Q.R.V.W.G.[am]}$PEPTIDE1,PEPTIDE1,5:R3-9:R3$$$V2.0)
1.6	0.4 to 1	> 30	CC[C@H](C)[C@H](NC(=O)[C@H](CO)NC(=O)[C@H](CCC(=O)O)NC(=O)[C@@H]1CCCN1C(=O)[C@H](CC(C)C)NC(=O)[C@H](CCCNC(=N)N)NC(=O)CCN)C(=O)N[C@@H](CC(C)C)C(=O)N[C@@H](CC(=O)O)C(=O)N[C@@H](CCC(=O)O)C(=O)N[C@@H](Cc1c[nH]cn1)C(=O)N[C@H](C(=O)N[C@@H](CCC(N)=O)C(=O)N[C@@H](CCCNC(=N)N)C(=O)N[C@H](C(=O)N[C@@H](Cc1c[nH]c2ccccc12)C(=O)N1CCC[C@H]1C(N)=O)C(C)C)C(C)C [compound 410] (HELM PEPTIDE1{[bAla].R.L.P.E.S.I.L.D.E.H.V.Q.R.V.W.P.[am]}$$$$V2.0)
0.7	1 to 10	> 30	CC[C@H](C)[C@H](NC(=O)[C@@H](NC(=O)[C@H](CCC(N)=O)NC(=O)[C@@H]1CCCN1C(=O)[C@H](CC(=O)O)NC(=O)[C@H](CCC(=O)O)NC(=O)[C@H](CCC(=O)O)NC(=O)CCNC(C)=O)[C@@H](C)O)C(=O)N[C@@H](CC(C)C)C(=O)N[C@@H](CC(=O)O)C(=O)N[C@@H](CC(=O)O)C(=O)N[C@@H](Cc1c[nH]cn1)C(=O)N[C@@H](CC(C)C)C(=O)N[C@@H](CO)C(=O)N[C@@H](CCCNC(=N)N)C(=O)N[C@H](C(=O)N[C@@H](CC(C)C)C(=O)N[C@@H](CCCCN)C(N)=O)C(C)C [compound 412] (HELM PEPTIDE1{[ac].[bAla].E.E.D.P.Q.T.I.L.D.D.H.L.S.R.V.L.K.[am]}$$$$V2.0)
0.7	< 0.4	> 30	CC[C@H](C)[C@H](NC(=O)[C@H](CO)NC(=O)[C@H](CCC(=O)O)NC(=O)[C@@H]1CCCN1C(=O)[C@H](CC(C)C)NC(=O)[C@H](CCCNC(=N)N)NC(=O)CCNC(C)=O)C(=O)N[C@@H](CC(C)C)C(=O)N[C@@H](CC(=O)O)C(=O)N[C@@H](CCC(=O)O)C(=O)N[C@@H](Cc1c[nH]cn1)C(=O)N[C@H](C(=O)N[C@@H](CCC(N)=O)C(=O)N[C@@H](CCCNC(=N)N)C(=O)N[C@H](C(=O)N[C@@H](Cc1c[nH]c2ccccc12)C(=O)N1CCC[C@H]1C(N)=O)C(C)C)C(C)C [compound 413] (HELM PEPTIDE1{[ac].[bAla].R.L.P.E.S.I.L.D.E.H.V.Q.R.V.W.P.[am]}$$$$V2.0)
0.94	< 0.4	> 30	CC[C@H](C)[C@@H]1NC(=O)[C@@H](NC(=O)[C@H](CCC(N)=O)NC(=O)[C@@H]2CCCN2C(=O)[C@H](Cc2c[nH]c3ccccc23)NC(=O)[C@H](CCCNC(=N)N)NC(C)=O)CCCCNC(=O)CC[C@@H](C(=O)N[C@@H](Cc2c[nH]cn2)C(=O)N[C@H](C(=O)N[C@@H](CCCNC(=N)N)C(=O)N[C@@H](CCCNC(=N)N)C(=O)N[C@H](C(=O)N[C@@H](Cc2c[nH]c3ccccc23)C(=O)N[C@@H](CCCNC(=N)N)C(N)=O)C(C)C)C(C)C)NC(=O)[C@H](CC(=O)O)NC(=O)[C@H](CC(C)C)NC1=O [compound 428] (HELM PEPTIDE1{[ac].R.W.P.Q.K.I.L.D.E.H.V.R.R.V.W.R.[am]}$PEPTIDE1,PEPTIDE1,6:R3-10:R3$$$V2.0)
1.75	< 0.4	15 to 22.5	CC[C@H](C)[C@@H]1NC(=O)[C@@H](NC(=O)[C@H](CCC(N)=O)NC(=O)[C@H](C)N(C)C(=O)[C@H](Cc2c[nH]c3ccccc23)NC(C)=O)CCCCNC(=O)C[C@@H](C(=O)N[C@@H](Cc2c[nH]cn2)C(=O)N[C@H](C(=O)N[C@@H](CCC(N)=O)C(=O)N[C@@H](CCCNC(=N)N)C(=O)N[C@H](C(=O)N[C@@H](Cc2c[nH]c3ccccc23)C(=O)NCC(N)=O)C(C)C)C2CCCCC2)NC(=O)[C@H](CC(=O)O)NC(=O)[C@H](CC(C)C)NC1=O [compound 430] (HELM PEPTIDE1{[ac].W.[meA].Q.K.I.L.D.D.H.[O=C([C@@H](N[*:1])C1CCCCC1)[*:2]].Q.R.V.W.G.[am]}$PEPTIDE1,PEPTIDE1,5:R3-9:R3$$$V2.0)
0.7	< 0.4	> 30	CC[C@H](C)[C@@H]1NC(=O)[C@@H](NC(=O)[C@H](CCC(N)=O)NC(=O)[C@H](C)N(C)C(=O)[C@H](Cc2c[nH]c3ccccc23)NC(C)=O)CCCCNC(=O)CC[C@@H](C(=O)N[C@@H](Cc2c[nH]cn2)C(=O)N[C@H](C(=O)N[C@@H](CCC(N)=O)C(=O)N[C@@H](CCCNC(=N)N)C(=O)N[C@H](C(=O)N[C@@H](Cc2c[nH]c3ccccc23)C(=O)NCC(N)=O)C(C)C)C2CCCCC2)NC(=O)[C@H](CC(N)=O)NC(=O)[C@H](CC(C)C)NC1=O [compound 435] (HELM PEPTIDE1{[ac].W.[meA].Q.K.I.L.N.E.H.[O=C([C@@H](N[*:1])C1CCCCC1)[*:2]].Q.R.V.W.G.[am]}$PEPTIDE1,PEPTIDE1,5:R3-9:R3$$$V2.0)
